Test results from patent US20210347823A1, “METHODS OF PHYSICOCHEMICAL-GUIDED PEPTIDE DESIGN AND NOVEL PEPTIDES DERIVED THEREFROM” (Massachusetts Institute of Technology, priority 2018, published 2021).
Entries after “also recorded” stand apart in the source; their conditions may differ.

Legend:
[1] = test system: S. aureus strain ATCC12600; experiment: MIC assay (broth microdilution) against S. aureus ATCC12600; format: cell-based, Staphylococcus aureus; conditions: S. aureus ATCC12600, 24 h, 37° C.
Source text: FIGS. 2A-2E. Design, physicochemical features and activity of Pol-CP—NH2 and Ala-scan analogs. FIG. 2A. Theoretical physicochemical properties of interest of the wild type and Ala-scan analogs, where H denotes hydrophobicity, μH is the hydrophobic moment, q represents the net charge and P/N is the ratio of polar/non-polar residues in the sequence. Top to bottom, left to right the sequences correspond to SEQ ID NOs: 1-13. FIG. 2B. Schematic of the in vitro biological activity experimental design. Briefly, 10^4 bacterial cells and serially diluted peptides (0-128 μmol L^−1) were added to a 96-well plate and incubated at 37° C. One day after the exposure, the solution in each well was measured in a microplate reader (600 nm) to check inhibition of bacteria compared to the untreated controls and presented as heat maps of antimicrobial activities (μmol L^−1) against four bacteria strains: E. coli strain BL21, S. aureus strain ATCC12600 and P. aeruginosa strains PA01, and PA14. Assays were performed in triplicates. FIG. 2C. Graph correlating MIC (μmol L^−1) averages vs H and (FIG. 2D) MIC (μmol L^−1) averages vs μH, where dots […] the dashed line show peptides with higher activity compared to the wild type, in which one can observe ranges of optimal activity in determined intervals of H and μH values. FIG. 2E. […]

[2] = test system: P. aeruginosa strain PA14; experiment: Scarification skin infection mouse model; format: in vivo, female CD-1 mice
Experimental: FIGS. 8A-8D. In vivo activity of Pol-CP—NH2 and its analogs. FIG. 8A. Schematic of the experimental design. Briefly, the back of mice was shaved and an abrasion was generated to damage the stratum corneum and the upper layer of the epidermis. Subsequently, an aliquot of 50 μL containing 5×10^7 CFU of P. aeruginosa in PBS was inoculated over each defined area. One day after the infection, peptides (4 μmol L^−1) were administered to the infected area. Animals were euthanized and the area of scarified skin was excised two and four days post-infection (FIG. 8B) homogenized using a bead beater for 20 minutes (25 Hz), and serially diluted for CFU quantification (****p<0.0001). FIG. 8C. Mouse body weight measurements throughout the experiment normalized by the body weight of non-infected mice. […] FIG. 8D. Longer experiment (four days) using a higher concentration (64 μmol L^−1) of peptides Pol-CP—NH2 and [Lys]'-Pol-CP—NH2 (****p<0.0001).
Scarification Skin Infection Mouse Model. P. aeruginosa strain PA14 was grown to an optical density at 600 nm (OD600) of 1 in tryptic soy broth (TSB) medium. […] Animals were euthanized and the area of scarified skin was excised two and four days post-infection, homogenized using a bead beater for 20 minutes (25 Hz), and serially diluted for CFU quantification. […] Statistical significance was assessed using a one-way ANOVA.

Substance | MIC [1] | in vivo anti-infective activity (CFU) ([2]; 64 μmol L^−1, four days, listed as [Lys]^7-Pol-CP—NH2) | in vivo antimicrobial activity (bacterial load, CFU) ([2]; single dose of 4 μmol L^−1 one day after infection)
H-ILGTILGLLKSL-NH2 [WT, ILGTILGLLKSL-NH2, reference compound] | 64.0 µM |  | 
H-ILGTILKLLKSL-NH2 [Peptide 16, ILGTILKLLKSL-NH2] |  | nearly sterilized the infection; also recorded: virtually sterilizing abscess infections | most active
